The values that follow come from patent publication US7087622B2, “Pyridone compounds as inhibitors of bacterial type III protein secreation systems” (priority 2004, dated 2006).

For assay [1], the system named is SPI1 type III protein secretion system (SopE-Bla secretion). The experiment in a line: Primary assay: Type III protein secretion of the chimeric SopE-Bla polypeptide by Salmonella enterica (nitrocefin hydrolysis). Format: cell-based. Conditions: read-out: SopE IC50(uM). An excerpt:
Primary assay: Type III protein secretion of the chimeric SopÉ-Bla polypeptide by Salmonella enterica. This procedure is a cell-based assay that measures the type III-dependent secretion by Salmonella enterica of a plasmid-encoded chimeric polypeptide whose synthesis can be regulated, and which is endowed with an enzymatic activity that can be monitored calorimetrically by hydrolysis of a substrate that is unable to penetrate into the bacterial cytoplasm within the time constraints of the reaction. Thus, the colorimetric reaction is not influenced by SopÉ-Bla polypeptide in the bacterial cytoplasm. Instead, it effectively measures the amount of polypeptide that has been secreted from the S. enterica cytoplasm to the extracellular medium via type III system protein secretion.
The SopÉ-Bla recombinant polypeptide consists of two functionally distinct domains spliced together. The N-terminus domain is encoded by a polynucleotide region specifying the signal for type III secretion of the SopE polypeptide of S. enterica, an effector of the SPI1 type III protein secretion system. The C-terminus domain of SopÉ-Bla consists of a 263 amino acid peptide sequence that corresponds to the TEM-1 β-lactamase expressed by plasmid pBR322 but without its N-terminal signal sequence. The TEM-1 β-lactamase part of the SopÉ-Bla chimeric polypeptide is used as a reporter enzyme. It is capable of hydrolyzing nitrocefin resulting in a product whose accumulation can be monitored by colorimetric detection. The secretion of the SopÉ-Bla chimeric polypeptide from the cytoplasm to the extracellular medium is dependent on type III protein secretion.
For this procedure, cells grown under conditions known to favor a functional SPI1 secretion system are induced for expression of the SopÉ-Bla protein and grown either in the presence or in the absence of putative inhibitors for determined time. Nitrocefin is then added to the various cultures and its hydrolysis are used for quantitation. An inhibitor of Type III protein secretion is generally a compound that reduces the signal of the enzymatic reaction by decreasing the amount of SopÉ-Bla secreted into the extracellular medium.

Assay [2] has as its system SPI1 type III protein secretion system (SipB secretion). Nature of the assay: Secondary assay: Type III-dependent protein secretion of the SipB polypeptide by S. enterica (immunoblot). Format: cell-based. Conditions: Salmonella enterica, read-out: SipB IC50(uM). How it is done:
Secondary assay: Type III-dependent protein secretion of the SipB polypeptide by S. enterica. The SipB protein of S. enterica is another effector of the SPI1 type III protein secretion system from S. enterica. In this cell-based procedure, the Type III-dependent secretion of SipB from the bacterial cytoplasm to the extracellular medium was measured through its reactivity with a cognate mouse monoclonal.
Salmonella enterica cells growing either in the presence or in the absence of inhibitors are induced for the production of SipB. Following an established period of growth the cells are sedimented and the amount of SipB present in the supernatant is quantified with a scanning imager following application of immunoblot techniques. Detection may employ an anti-SipB mouse monoclonal antibody (e.g., obtained from Jorge Galan, SUNY at Stony Brook, N.Y.) followed by treatment with commercially available sheep anti-mouse polyclonal antibody conjugated with horseradish peroxidase. Thereafter the membrane is treated with a peroxidase chemiluminescent substrate and exposed to film for an appropriate exposure time. Inhibition may be measured relative to untreated controls.
In general terms: In western blotting, separated proteins are transferred to a membrane and probed.

Where only a bound is given, the exact number is not on record here.

In general, IC50 refers to the concentration needed to halve the response being measured. Consider `O=C(Nc1cc(-c2cccc3ccccc23)cn(C(CSCc2ccccc2)C(=O)O)c1=O)c1ccc(C(F)(F)F)cc1` (stereo in doubt) [Compound 16, (R)-3-Benzylsulfanyl-2-[5-naphthalen-1-yl-2-oxo-3-(4-trifluoromethyl-benzoylamino)-2H-pyridin-1-yl]propionic acid], for which the IC50 was 6.4 µM in assay [1] and greater than 100 µM in assay [2].

For `O=C(Nc1cc(-c2ccc(-c3ccccc3)cc2)cn([C@@H](Cc2ccccc2)C(=O)O)c1=O)c1ccc(C(F)(F)F)cc1` [Compound 2, (S)-2-[5-Biphenyl-4-yl-2-oxo-3-(4-trifluoromethylbenzoylamino)-2H-pyridin-1-yl]-3-phenylpropionic acid], the IC50 is 9.3 µM in assay [1] and greater than 100 µM in assay [2].

As for `O=C(Nc1cc(-c2ccc3ccccc3c2)cn([C@@H](Cc2ccccc2)C(=O)O)c1=O)c1ccc(C(F)(F)F)cc1` [Compound 3, (S)-2-[5-Naphthalen-2-yl-2-oxo-3-(4-trifluoromethylbenzoylamino)-2H-pyridin-1-yl]-3-phenylpropionic acid], the IC50 in assay [1] was 28.5 µM; in assay [2] it was greater than 100 µM.

In the case of `O=C(Nc1cc(-c2cncnc2)cn([C@@H](Cc2ccccc2)C(=O)O)c1=O)c1ccc(C(F)(F)F)cc1` [Compound 7, (S)-2-[2-Oxo-5-pyrimidin-5-yl-3-(4-trifluoromethylbenzoylamino)-2H-pyridin-1-yl]-3-phenylpropionic acid], the IC50 in assay [1] is 82.3 µM; in assay [2] it was greater than 100 µM.

Turning to `CN(C)c1ccc(-c2cc(NC(=O)c3ccc(C(F)(F)F)cc3)c(=O)n([C@@H](COCc3ccccc3)C(=O)O)c2)cc1` [Compound 11, (S)-3-Benzyloxy-2-[5-(4-dimethylaminophenyl)-2-oxo-3-(4-trifluoromethyl-benzoylamino)-2H-pyridin-1-yl]propionic acid], the IC50 in assay [1] was 76 µM; in assay [2], greater than 100 µM.

As for `CC(C)Oc1ccc(-c2cc(NC(=O)c3ccc(C(F)(F)F)cc3)c(=O)n([C@@H](COCc3ccccc3)C(=O)O)c2)cc1` [Compound 12, (S)-3-Benzyloxy-2-[5-(4-isopropoxyphenyl)-2-oxo-3-(4-trifluoromethyl-benzoylamino)-2H-pyridin-1-yl]propionic acid], the IC50 in assay [1] was 67.2 µM; in assay [2] it was greater than 100 µM.

In the case of `O=C(Nc1cc(-c2ccc3ccccc3c2)cn([C@@H](COCc2ccccc2)C(=O)O)c1=O)c1ccc(C(F)(F)F)cc1` [Compound 13, (S)-3-Benzyloxy-2-[5-naphthalen-2-yl-2-oxo-3-(4-trifluoromethylbenzoylamino)-2H-pyridin-1-yl]propionic acid], the IC50 in assay [1] is 48 µM; in assay [2], greater than 100 µM.

In the case of `O=C(Nc1cc(-c2ccc(-c3ccccc3)cc2)cn(C(Cc2ccc(Cl)cc2)C(=O)O)c1=O)c1ccc(C(F)(F)F)cc1` (stereo not drawn) [Compound 17, 2-[5-Biphenyl-4-yl-2-oxo-3-(4-trifluoromethylbenzoylamino)-2H-pyridin-1-yl]-3-(4-chlorophenyl)propionic acid], the values for the IC50 in assay [1] and in assay [2] were 2 µM and greater than 100 µM, respectively.

Take `O=C(Nc1cc(-c2ccc(Oc3ccccc3)cc2)cn(C(Cc2ccc(Cl)cc2)C(=O)O)c1=O)c1ccc(C(F)(F)F)cc1` (stereo not drawn) [Compound 18, 3-(4-Chlorophenyl)-2-[2-oxo-5-(4-phenoxyphenyl)-3-(4-trifluoromethyl-benzoylamino)-2H-pyridin-1-yl]propionic acid]: the IC50 was 2.3 µM in assay [1] and greater than 100 µM in assay [2].

For the compound `O=C(Nc1cc(-c2cccc3ccccc23)cn(C(Cc2ccc(Cl)cc2)C(=O)O)c1=O)c1ccc(C(F)(F)F)cc1` (stereo not drawn) [Compound 19, 3-(4-Chlorophenyl)-2-[5-naphthalen-1-yl-2-oxo-3-(4-trifluoromethyl-benzoylamino)-2H -1-yl]propionic acid], the results for the IC50 in assay [1] and in assay [2] were 5.5 µM and greater than 100 µM, respectively.

As for `O=C(Nc1cc(-c2cccc(C(F)(F)F)c2)cn(C(Cc2ccc(Cl)cc2)C(=O)O)c1=O)c1ccc(Oc2ccccc2)cc1` (stereo not drawn) [Compound 23, 3-(4-Chlorophenyl)-2-[2-oxo-3-(4-phenoxybenzoylamino)-5-(3-trifluoromethyl-phenyl)-2H-pyridin-1-yl]propionic acid], the IC50 is 9.8 µM in assay [1] and greater than 100 µM in assay [2].

In the case of `O=C(Nc1cc(-c2cc3ccccc3o2)cn(C(Cc2ccc(Cl)cc2)C(=O)O)c1=O)c1ccc(C(F)(F)F)cc1` (stereo not drawn) [Compound 25, 2-[5-Benzofuran-2-yl-2-oxo-3-(4-trifluoromethylbenzoylamino)-2H-pyridin-1-yl]-3-(4-chlorophenyl)propionic acid], the IC50 in assay [1] was 3.7 µM; in assay [2], greater than 100 µM.

Consider `O=C(Nc1cc(-c2cc3ccccc3s2)cn(C(Cc2ccc(Cl)cc2)C(=O)O)c1=O)c1ccc(C(F)(F)F)cc1` (stereo not drawn) [Compound 26, 2-[5-Benzo[b]thiophen-2-yl-2-oxo-3-(4-trifluoromethylbenzoylamino)-2H-pyridin-1-yl]-3-(4-chlorophenyl)propionic acid], for which the IC50 in assay [1] is 2.4 µM; in assay [2], greater than 100 µM.

On to `CC(=O)c1ccc(-c2cc(NC(=O)c3ccc(C(F)(F)F)cc3)c(=O)n(C(Cc3ccc(Cl)cc3)C(=O)O)c2)s1` (stereo not drawn) [Compound 27, 2-[5-(5-Acetylthiophen-2-yl)-2-oxo-3-(4-trifluoromethylbenzoylamino)-2H-pyridin-1-yl]-3-(4-chlorophenyl)propionic acid], for which the values for the IC50 in assay [1] and in assay [2] were 34.2 µM and greater than 100 µM, respectively.

With `CC(=O)Nc1cccc(-c2cc(NC(=O)c3ccc(C(F)(F)F)cc3)c(=O)n(C(Cc3ccc(Cl)cc3)C(=O)O)c2)c1` (stereo not drawn) [Compound 28, 2-[5-(3-Acetylaminophenyl)-2-oxo-3-(4-trifluoromethylbenzoylamino)-2H-pyridin-1-yl]-3-(4-chlorophenyl)propionic acid], the IC50 in assay [1] is 52.4 µM; in assay [2], greater than 100 µM.

In the case of `O=C(Nc1cc(-c2ccc(O)cc2)cn(C(Cc2ccc(Cl)cc2)C(=O)O)c1=O)c1ccc(C(F)(F)F)cc1` (stereo not drawn) [Compound 29, 3-(4-Chlorophenyl)-2-[5-(4-hydroxyphenyl)-2-oxo-3-(4-trifluoromethyl-benzoylamino)-2H-pyridin-1-yl]propionic acid], the values for the IC50 in assay [1] and in assay [2] were 31.8 µM and greater than 100 µM, respectively.

Regarding `O=C(Nc1cc(C#Cc2ccccc2)cn(C(Cc2ccc(Cl)cc2)C(=O)O)c1=O)c1ccc(C(F)(F)F)cc1` (stereo not drawn) [Compound 31, 3-(4-Chlorophenyl)-2-[2-oxo-5-phenylethynyl-3-(4-trifluoromethylbenzoylamino)-2H-pyridin-1-yl]propionic acid], the IC50 in assay [1] is 34.2 µM; in assay [2], greater than 100 µM.

As for `O=C(Nc1cc(-c2ccccc2)cn(C(Cc2ccc(Cl)cc2)C(=O)O)c1=O)c1ccc(-c2ccccc2)cc1` (stereo not drawn) [Compound 32, 2-{3-[(Biphenyl-4-carbonyl)amino]-2-oxo-5-phenyl-2H-pyridin-1-yl}-3-(4-chloro-phenyl)propionic acid], the IC50 was 2.3 µM in assay [1] and greater than 100 µM in assay [2].

For the compound `O=C(Nc1cc(-c2cc(F)cc(F)c2)cn(C(Cc2ccc(Cl)cc2)C(=O)O)c1=O)c1ccc(-c2ccccc2)cc1` (stereo not drawn) [Compound 36, [3-[(Biphenyl-4-carbonyl)amino]-5-(3,5-difluorophenyl)-2-oxo-2H-pyridin-1-yl]-3-(4-chlorophenyl)propionic acid], the IC50 in assay [1] is 2.4 µM; in assay [2] it was greater than 100 µM.

As for `O=C(Nc1cc(-c2ccc(Br)cc2)cn(C(Cc2ccc(Cl)cc2)C(=O)O)c1=O)c1ccc(-c2ccccc2)cc1` (stereo not drawn) [Compound 37, 2-[3-[(Biphenyl-4-carbonyl)amino]-5-(4-bromophenyl)-2-oxo-2H-pyridin-1-yl]-3-(4-chlorophenyl)propionic acid], the figures for the IC50 in assay [1] and in assay [2] were 1.5 µM and greater than 100 µM, respectively.

Regarding `O=C(Nc1cc(-c2cccc3ccccc23)cn(C(Cc2ccc(Cl)cc2)C(=O)O)c1=O)c1ccc(-c2ccccc2)cc1` (stereo not drawn) [Compound 46, 2-{3-[(Biphenyl-4-carbonyl)amino]-5-naphthalen-1-yl-2-oxo-2H-pyridin-1-yl}-3-(4-chlorophenyl)propionic acid], the results for the IC50 in assay [1] and in assay [2] were 1.1 µM and greater than 100 µM, respectively.
